Measured values published in patent US20240254087A1, “SELECTIVE, PARTIAL, AND ARRESTIN-BIASED 5-HT2A AGONISTS WITH UTILITY IN VARIOUS DISORDERS” (Saint Joseph's University, priority 2021, published 2024).

Tests used:
5-HT2A [1] = target: T1, 5-HT2A (Homo sapiens, UniProt P28223); test: Ca2+ flux assay, 5-HT2A; format: cell-based; design: expressed in transfected cells; details: for EC50: 5-HT2A EC50, nM, Ca2+ flux; for Emax: read-out: 5-HT2A Emax % 5-HT, Ca2+ flux
Procedure: (§1) Cell lines were maintained in DMEM containing 10% FBS, 10 μg/mL Blasticidin (Invivogen), and 100 μg/mL Hygromycin B (GoldBio). At least 20-24 hours before the assay, receptor expression was induced with tetracycline ([…]) and cells were seeded into 384-well poly-L-lysine-coated black plates at a density of 7,500 cells/well in DMEM containing 1% dialyzed FBS. On the day of the assay, the cells were incubated for 1 h at 37° C. with Fluo-4 Direct dye (Invitrogen, 20 μl/well) reconstituted in drug buffer (20 mM HEPES-buffered HBSS, pH 7.4) containing 2.5 mM probenecid. Drug dilutions were prepared at 5X final concentration in McCorvy buffer (20 mM HEPES-buffered HBSS, 0).1% BSA, 0.01% ascorbic acid pH 7.4). After dye load, cells were allowed to equilibrate to room temperature for 15 minutes, and then placed in a FLIPR^TETRA fluorescence imaging plate reader (Molecular Devices). Fluorescence for the FLIPR^TETRA were programmed to read baseline fluorescence for 10 s (1 read/s), and afterward 5 μl of drug per well was added and read for a total of 5-10 min (1 read/s). Fluorescence in each well was normalized to the average of the first 10 reads for baseline fluorescence, and then either maximum-fold peak increase over basal or area under the curve (AUC) was calculated. […] Data was plotted and non-linear regression was performed using “log(agonist) vs. response” in Graphpad Prism 8 to yield Emax and EC50 parameter estimates.

5-HT1A = target: T2, 5-HT1A (Homo sapiens, UniProt P08908); test: Competitive radioligand binding (NIMH PDSP)
T2 sequence (P08908 1-422): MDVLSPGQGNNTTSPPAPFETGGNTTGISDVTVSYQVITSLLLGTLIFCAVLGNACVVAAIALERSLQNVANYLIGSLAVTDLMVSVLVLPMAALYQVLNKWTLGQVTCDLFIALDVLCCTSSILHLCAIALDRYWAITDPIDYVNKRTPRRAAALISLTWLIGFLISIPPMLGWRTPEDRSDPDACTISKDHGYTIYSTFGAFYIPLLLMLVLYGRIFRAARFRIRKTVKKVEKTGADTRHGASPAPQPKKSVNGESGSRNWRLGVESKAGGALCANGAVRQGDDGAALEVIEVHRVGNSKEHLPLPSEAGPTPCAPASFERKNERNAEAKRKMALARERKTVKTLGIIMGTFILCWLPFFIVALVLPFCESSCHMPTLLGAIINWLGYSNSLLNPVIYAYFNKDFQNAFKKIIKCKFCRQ
Procedure: (§2) Method 1: Competitive binding experiments were performed by the National Institute of Mental Health Psychoactive Drug Screening Program (NIMH PDSP) using described methods or 5-HT2A experiments performed using [3H]-ketanserin displacement in human 5-HT2A expressing membranes. Target compounds were dissolved in DMSO and an initial screen performed to assess displacement of the radioligand from target receptors at a concentration of 10,000 nM. […] For the Ki experiments, compounds were always tested in triplicate on separate plates. Each plate also contained a known ligand for the receptor as a positive control.

5-HT3 = target: T3, 5-HT3 (Homo sapiens, UniProt P46098); test: Competitive radioligand binding (NIMH PDSP)
T3 sequence (P46098 24-478): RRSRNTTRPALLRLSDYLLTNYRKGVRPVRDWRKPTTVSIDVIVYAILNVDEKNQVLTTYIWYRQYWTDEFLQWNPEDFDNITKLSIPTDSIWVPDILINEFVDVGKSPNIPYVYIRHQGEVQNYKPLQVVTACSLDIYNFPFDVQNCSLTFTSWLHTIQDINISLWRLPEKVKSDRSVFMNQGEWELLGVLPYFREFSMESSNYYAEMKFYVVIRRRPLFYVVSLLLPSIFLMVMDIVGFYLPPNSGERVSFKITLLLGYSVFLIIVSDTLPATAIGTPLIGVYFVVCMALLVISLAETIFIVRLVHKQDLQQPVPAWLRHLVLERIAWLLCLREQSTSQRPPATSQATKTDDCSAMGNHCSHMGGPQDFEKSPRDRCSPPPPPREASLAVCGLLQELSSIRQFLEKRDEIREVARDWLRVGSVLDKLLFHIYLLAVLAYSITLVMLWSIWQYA
Procedure: as §2

5-HT1D = 5-HT1D (Homo sapiens, UniProt P28221); test: Competitive radioligand binding (NIMH PDSP)
Procedure: as §2

5-HT1e = 5-HT1e (Homo sapiens, UniProt P28566); test: Competitive radioligand binding (NIMH PDSP)
Procedure: as §2

5-HT2A [2] = target: T1, 5-HT2A; test: Competitive radioligand binding (NIMH PDSP)
Procedure: as §2

5-HT1B = 5-HT1B (Homo sapiens, UniProt P28222); test: Competitive radioligand binding (NIMH PDSP)
Procedure: as §2

5-HT2B [3] = target: T4, 5-HT2B (Homo sapiens, UniProt P41595); test: Ca2+ flux assay, 5-HT2B; format: cell-based; design: expressed in transfected cells; details: Ca2+ flux; for Emax: read-out: 5-HT2B Emax % 5-HT
Procedure: as §1

5-HT2A [4] = test: Ca2+ flux assay, 5-HT2A; format: cell-based, human; details: Gq/11 Ca2+ mobilization; higher number = skewed towards 5-HT2A
Procedure: as §1

5-HT2B [5] = target: T4, 5-HT2B; test: Competitive radioligand binding (NIMH PDSP); design: expressed in transfected cells
Procedure: as §2

5-HT2C [6] = target: T5, 5-HT2C (Homo sapiens, UniProt P28335); test: Competitive radioligand binding (NIMH PDSP); design: expressed in transfected cells
T5 sequence (P28335 33-458): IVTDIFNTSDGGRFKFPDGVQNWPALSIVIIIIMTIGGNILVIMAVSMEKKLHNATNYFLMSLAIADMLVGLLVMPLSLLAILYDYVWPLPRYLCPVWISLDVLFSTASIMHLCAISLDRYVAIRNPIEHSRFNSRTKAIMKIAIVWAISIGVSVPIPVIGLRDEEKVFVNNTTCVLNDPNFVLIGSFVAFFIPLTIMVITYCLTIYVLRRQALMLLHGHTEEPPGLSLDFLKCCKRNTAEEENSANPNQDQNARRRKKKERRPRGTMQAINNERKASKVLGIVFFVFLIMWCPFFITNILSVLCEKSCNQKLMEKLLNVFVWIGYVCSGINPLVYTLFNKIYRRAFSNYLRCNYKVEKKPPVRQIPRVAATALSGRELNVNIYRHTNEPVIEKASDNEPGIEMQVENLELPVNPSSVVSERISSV
Procedure: as §2

5-HT2C [7] = target: T5, 5-HT2C; test: Ca2+ flux assay, 5-HT2C; format: cell-based; design: expressed in transfected cells; details: for Emax: read-out: 5-HT2C Emax % 5-HT
Procedure: as §1

5-HT2A [8] = target: T1, 5-HT2A; test: [3H]-ketanserin displacement, 5-HT2A membranes; format: binding; design: ES-313-M400UA (membranes); host or cells: CHO-K1; details: [3H]-ketanserin displacement (n = 2); read-out: 5-HT2A pKi Mean ± SEM (converted)
5-HT2A [9] = target: T1, 5-HT2A; test: cell-based; design: expressed in transfected cells; host or cells: HEK293T, transient; details: for EC50: BRET, mean ± SEM, read-out: 5-HT2A Gq dissociation pEC50 (converted); for Emax: read-out: 5-HT2A Gq Emax (% 5-HT), BRET, mean ± SEM
5-HT2A [10] = target: T1, 5-HT2A; test: cell-based; design: expressed in transfected cells; host or cells: HEK293T, transient; details: for EC50: BRET, mean ± SEM, read-out: 5-HT2A β-arrestin recruitment pEC50 (converted); for Emax: read-out: 5-HT2A β-arrestin Emax (% 5-HT), BRET, mean ± SEM

Chain of 5-HT1D (P28221 whole entry, species assumed): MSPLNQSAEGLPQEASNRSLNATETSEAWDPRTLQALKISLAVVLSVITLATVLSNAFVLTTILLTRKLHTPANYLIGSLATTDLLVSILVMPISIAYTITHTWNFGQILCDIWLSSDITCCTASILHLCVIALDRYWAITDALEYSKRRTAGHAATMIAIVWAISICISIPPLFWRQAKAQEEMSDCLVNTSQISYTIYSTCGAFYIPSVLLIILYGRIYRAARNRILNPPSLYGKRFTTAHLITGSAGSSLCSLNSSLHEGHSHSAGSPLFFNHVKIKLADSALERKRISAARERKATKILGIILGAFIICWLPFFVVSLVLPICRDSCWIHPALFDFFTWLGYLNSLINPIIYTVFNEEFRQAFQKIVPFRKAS
Chain of 5-HT1e (P28566 whole entry, species assumed): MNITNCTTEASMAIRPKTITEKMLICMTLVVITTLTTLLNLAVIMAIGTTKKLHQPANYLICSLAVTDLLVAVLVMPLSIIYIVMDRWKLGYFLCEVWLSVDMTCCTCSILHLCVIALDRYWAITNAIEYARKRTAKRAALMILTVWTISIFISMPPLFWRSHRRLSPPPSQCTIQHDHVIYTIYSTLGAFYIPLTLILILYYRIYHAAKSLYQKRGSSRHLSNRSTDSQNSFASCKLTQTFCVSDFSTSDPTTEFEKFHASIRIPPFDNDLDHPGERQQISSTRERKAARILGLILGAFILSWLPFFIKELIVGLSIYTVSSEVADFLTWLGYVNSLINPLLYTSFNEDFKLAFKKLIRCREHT
T4 sequence (P41595 whole entry): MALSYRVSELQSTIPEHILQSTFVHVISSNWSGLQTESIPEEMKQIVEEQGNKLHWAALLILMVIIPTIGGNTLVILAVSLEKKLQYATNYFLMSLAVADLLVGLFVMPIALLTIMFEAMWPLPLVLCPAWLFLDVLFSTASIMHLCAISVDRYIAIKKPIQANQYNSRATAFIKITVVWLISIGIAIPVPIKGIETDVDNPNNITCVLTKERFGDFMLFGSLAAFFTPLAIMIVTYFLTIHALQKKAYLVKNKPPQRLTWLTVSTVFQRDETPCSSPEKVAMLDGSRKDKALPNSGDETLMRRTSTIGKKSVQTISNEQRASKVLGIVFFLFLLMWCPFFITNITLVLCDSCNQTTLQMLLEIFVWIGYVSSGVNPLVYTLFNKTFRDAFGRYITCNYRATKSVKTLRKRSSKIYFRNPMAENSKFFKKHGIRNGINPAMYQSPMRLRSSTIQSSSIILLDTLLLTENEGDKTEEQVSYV
T1 sequence (P28223 whole entry): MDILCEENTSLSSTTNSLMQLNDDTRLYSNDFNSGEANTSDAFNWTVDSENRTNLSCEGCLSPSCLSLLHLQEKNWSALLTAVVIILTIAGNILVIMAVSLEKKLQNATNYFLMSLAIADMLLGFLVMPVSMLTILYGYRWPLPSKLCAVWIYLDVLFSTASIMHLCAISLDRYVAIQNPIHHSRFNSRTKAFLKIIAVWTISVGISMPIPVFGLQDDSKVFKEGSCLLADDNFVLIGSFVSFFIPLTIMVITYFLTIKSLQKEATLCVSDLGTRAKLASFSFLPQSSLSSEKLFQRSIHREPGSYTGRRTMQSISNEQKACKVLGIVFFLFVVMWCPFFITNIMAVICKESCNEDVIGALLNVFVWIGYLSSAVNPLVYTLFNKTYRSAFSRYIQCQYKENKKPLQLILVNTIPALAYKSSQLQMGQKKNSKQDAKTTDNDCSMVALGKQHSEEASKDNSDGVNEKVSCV
Chain of 5-HT1B (P28222 whole entry, species assumed): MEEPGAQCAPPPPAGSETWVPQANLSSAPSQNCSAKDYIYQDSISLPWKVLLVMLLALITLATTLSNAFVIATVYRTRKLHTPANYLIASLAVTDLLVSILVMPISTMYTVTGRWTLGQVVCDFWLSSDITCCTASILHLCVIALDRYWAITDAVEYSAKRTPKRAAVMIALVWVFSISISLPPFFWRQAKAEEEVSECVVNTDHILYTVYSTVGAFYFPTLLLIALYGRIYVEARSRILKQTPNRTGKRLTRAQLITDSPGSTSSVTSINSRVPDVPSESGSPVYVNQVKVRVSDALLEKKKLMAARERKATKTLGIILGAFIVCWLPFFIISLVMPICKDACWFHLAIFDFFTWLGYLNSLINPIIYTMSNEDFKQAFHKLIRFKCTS

Row | SMILES | EC50 (5-HT2A [1]) | Emax (5-HT2A [1]) | Ki (5-HT1A) | Ki (5-HT3) | Ki (5-HT1D) | Ki (5-HT1e) | Ki (5-HT2A [2]) | Ki (5-HT1B) | 5-HT2B EC50, nM (5-HT2B [3]) | Emax (5-HT2B [3]) | 5-HT2A/5-HT2c Selectivity Factor ΔLog(Emax/EC50) (5-HT2A [4]) | Ki (5-HT2B [5]) | Ki (5-HT2C [6]) | EC50 (5-HT2C [7]; 5-HT2C EC50, nM) | Emax (5-HT2C [7]) | Ki (5-HT2A [8]) | EC50 (5-HT2A [9]) | Emax (5-HT2A [9]) | EC50 (5-HT2A [10]) | Emax (5-HT2A [10]) | other results
1 | COc1cc([N+](=O)[O-])c(OC)cc1CCNCc1cccc(F)c1 [25N-NB-3-F (24), [2-(2,5-dimethoxy-4-nitrophenyl)ethyl][(3-fluorophenyl)methyl]amine] | 2.25 nM | 85 ± 2% | > 10000 nM | > 10000 nM | > 10000 nM | > 10000 nM | 3.02 nM | > 10000 nM | No activity | < 10% | 154.4 | 42.7 nM | 224 nM | 149 nM | 54 ± 1% |  |  |  |  |  | 
2 | COc1cc([N+](=O)[O-])c(OC)cc1CCNCc1ccc(F)cc1 [25N-NB-4-F (25), [2-(2,5-dimethoxy-4-nitrophenyl)ethyl][(4-fluorophenyl)methyl]amine] | 19.7 nM | 48 ± 2% | > 10000 nM | > 10000 nM | > 10000 nM | > 10000 nM | 6.17 nM | > 10000 nM | No activity | < 10% | 43.3 | 85.1 nM | 813 nM | 413 nM | 21 ± 2% |  |  |  |  |  | 
3 | COc1cc([N+](=O)[O-])c(OC)cc1CCNCc1ccc(C)cc1 [25N-NB-4-Me (23), [2-(2,5-dimethoxy-4-nitrophenyl)ethyl] [(4-methylphenyl)methyl]amine] | 38.3 nM | 42 ± 3% | 2630 nM | > 10000 nM | > 10000 nM | > 10000 nM | 5.5 nM | > 10000 nM | No activity | < 10% | 66.1 | 52.5 nM | 631 nM | 844 nM | 14 ± 1% |  |  |  |  |  | 
4 | COc1cc([N+](=O)[O-])c(OC)cc1CCNCc1cccc2c1OC(F)(F)O2 [25N-NBMDF2 (13), [(2,2-difluoro-2H-1,3-benzodioxol-4-yl)methyl][2-(2,5-dimethoxy-4-nitrophenyl)ethyl]amine] | 3.02 nM | 86 ± 2% | 1000 nM | > 10000 nM | > 10000 nM | > 10000 nM | 1.2 nM | > 10000 nM | No activity | < 10% | 252.5 | 46.8 nM | 214 nM | 431 nM | 49 ± 4% |  |  |  |  |  | EC50 (5-HT2C [7]; 5-HT2C (pEC50 ± SEM)): 437 nM
5 | COc1cc(OC)c(OC)cc1CCNCc1ccc(F)c2ccccc12 [(67)] |  |  |  |  |  |  |  |  |  |  |  |  |  |  |  | 50.1 nM | 22.9 nM | 41 ± 1.3% | 10.2 nM | 73.6 ± 3.2% | 
6 | COc1cc(OC)c(OC)cc1CCNCc1cccc(C)c1O [(68)] |  |  |  |  |  |  |  |  |  |  |  |  |  |  |  | 30.9 nM | 3.24 nM | 63.4 ± 0.8% | 1.41 nM | 89.1 ± 2.3% | 
7 | COc1cc(OC)c(OC)cc1CCNCc1ccccc1C1CC1 [(70)] |  |  |  |  |  |  |  |  |  |  |  |  |  |  |  | 70.8 nM | 3.63 nM | 97.5 ± 1.5% | 6.92 nM | 116 ± 4.4% | 
8 | COc1cc(OC)c(OC)cc1CCNCc1cccc(C(C)(C)C)c1 [(71)] |  |  |  |  |  |  |  |  |  |  |  |  |  |  |  | 380 nM | 1620 nM | 38.6 ± 5% | 1620 nM | 60.4 ± 5.2% | 
9 | COc1cc(OC)c(OC)cc1CCNCc1cccc(I)c1F [(72)] |  |  |  |  |  |  |  |  |  |  |  |  |  |  |  | 49 nM | 33.9 nM | 60.7 ± 1.7% | 7.08 nM | 63.5 ± 3.2% | 
10 | COc1cc(OC)c(OC)cc1CCNCc1cccc2ccsc12 [(73), N-(benzo[b]thiophen-7-ylmethyl)-2-(2,4,5-trimethoxyphenyl)-ethan-1-amine] |  |  |  |  |  |  |  |  |  |  |  |  |  |  |  | 29.5 nM |  |  |  |  | 
